In PubChem BioAssay (NCI):
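Tested at 5 concentrations; 48 h exposure; 96-well plates; endpoints linearly interpolated, else capped at highest concentration. At the GI50, growth is halved. TGI marks complete inhibition of growth.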

Columns and labels:
Assay in all cases: DTP human tumour cell line panel, 48 h
786-0 renal = system: 786-0 renal
A498 renal = system: A498 renal
A549 NSCLC = system: A549 NSCLC
ACHN renal = system: ACHN renal
CAKI-1 renal = system: CAKI-1 renal
CCRF-CEM leukemia = system: CCRF-CEM leukemia
COLO 205 colon = system: COLO 205 colon
DLD-1 colon = system: DLD-1 colon
DMS 114 small cell lung = system: DMS 114 small cell lung
DMS 273 small cell lung = system: DMS 273 small cell lung
EKVX NSCLC = system: EKVX NSCLC
HCC-2998 colon = system: HCC-2998 colon
HCT-116 colon = system: HCT-116 colon
HCT-15 colon = system: HCT-15 colon
HL-60(TB) leukemia = system: HL-60(TB) leukemia
HOP-18 NSCLC = system: HOP-18 NSCLC
HOP-62 NSCLC = system: HOP-62 NSCLC
HOP-92 NSCLC = system: HOP-92 NSCLC
HT29 colon = system: HT29 colon
IGROV1 ovarian = system: IGROV1 ovarian
K-562 leukemia = system: K-562 leukemia
KM12 colon = system: KM12 colon
KM20L2 colon = system: KM20L2 colon
LXFL 529 NSCLC = system: LXFL 529 NSCLC
M14 melanoma = system: M14 melanoma
M19-MEL melanoma = system: M19-MEL melanoma
MALME-3M melanoma = system: MALME-3M melanoma
MOLT-4 leukemia = system: MOLT-4 leukemia
NCI-H226 lung = system: NCI-H226 lung
NCI-H23 lung = system: NCI-H23 lung
NCI-H460 lung = system: NCI-H460 lung
NCI-H522 lung = system: NCI-H522 lung
OVCAR-3 ovarian = system: OVCAR-3 ovarian
OVCAR-4 ovarian = system: OVCAR-4 ovarian
OVCAR-5 ovarian = system: OVCAR-5 ovarian
OVCAR-8 ovarian = system: OVCAR-8 ovarian
RPMI-8226 leukemia = system: RPMI-8226 leukemia
RXF-631 renal = system: RXF-631 renal
SF-268 CNS = system: SF-268 CNS
SF-295 CNS = system: SF-295 CNS
SF-539 CNS = system: SF-539 CNS
SK-MEL-2 melanoma = system: SK-MEL-2 melanoma
SK-MEL-28 melanoma = system: SK-MEL-28 melanoma
SK-MEL-5 melanoma = system: SK-MEL-5 melanoma
SK-OV-3 ovarian = system: SK-OV-3 ovarian
SN12C renal = system: SN12C renal
SNB-19 CNS = system: SNB-19 CNS
SNB-75 CNS = system: SNB-75 CNS
SNB-78 CNS = system: SNB-78 CNS
SW-620 colon = system: SW-620 colon
TK-10 renal = system: TK-10 renal
U251 CNS = system: U251 CNS
UACC-257 melanoma = system: UACC-257 melanoma
UACC-62 melanoma = system: UACC-62 melanoma
UO-31 renal = system: UO-31 renal
XF 498 CNS = system: XF 498 CNS
LOX IMVI melanoma = system: LOX IMVI melanoma
RXF 393 renal = system: RXF 393 renal

`C=C1CCC2[C@@H](CCC3[C@]2(C)CCC[C@]3(C)C(=O)OC)[C@@H]1CC=O` (some centres not stated) gave a TGI (786-0 renal) of over 100 µM, a GI50 (A498 renal) of 87.8 µM and a TGI (A498 renal) of over 100 µM. The GI50 (A549 NSCLC) was 62 µM, the TGI (A549 NSCLC) was over 100 µM and the TGI (ACHN renal) was 82 µM. For the same compound, the GI50 (CAKI-1 renal) was 35.8 µM, the TGI (CAKI-1 renal) was over 100 µM and the TGI (CCRF-CEM leukemia) was 64.2 µM. For the same compound, the TGI (COLO 205 colon) was over 100 µM, the TGI (DLD-1 colon) was over 100 µM and the TGI (DMS 114 small cell lung) was 53.2 µM. The TGI (DMS 273 small cell lung) was 50.1 µM, the TGI (EKVX NSCLC) was 77.6 µM and the TGI (HCC-2998 colon) was over 100 µM. The TGI (HCT-116 colon) was 30.7 µM, the TGI (HCT-15 colon) was 81.2 µM and the TGI (HL-60(TB) leukemia) was 55.9 µM. It also gave a TGI (HOP-18 NSCLC) of 86 µM, a GI50 (HOP-62 NSCLC) of over 100 µM and a TGI (HOP-62 NSCLC) of over 100 µM. The TGI (HOP-92 NSCLC) was 48.9 µM, the TGI (HT29 colon) was 81 µM and the TGI (IGROV1 ovarian) was over 100 µM. The GI50 (K-562 leukemia) was 26 µM, the TGI (K-562 leukemia) was 77.4 µM and the GI50 (KM12 colon) was 39.3 µM. It also gave a TGI (KM12 colon) of over 100 µM, a TGI (KM20L2 colon) of 62.7 µM and a TGI (LXFL 529 NSCLC) of over 100 µM. The TGI (M14 melanoma) was 40.2 µM, the TGI (M19-MEL melanoma) was 49 µM and the TGI (MALME-3M melanoma) was 87.7 µM. It also gave a GI50 (MOLT-4 leukemia) of 23.6 µM, a TGI (MOLT-4 leukemia) of 59.9 µM and a TGI (NCI-H226 lung) of over 100 µM. For the same compound, the TGI (NCI-H23 lung) was 66.5 µM, the TGI (NCI-H460 lung) was 41.3 µM and the GI50 (NCI-H522 lung) was over 100 µM. It also gave a TGI (NCI-H522 lung) of over 100 µM, a TGI (OVCAR-3 ovarian) of 41.9 µM and a TGI (OVCAR-4 ovarian) of 85.2 µM. The GI50 (OVCAR-5 ovarian) was 50.8 µM, the TGI (OVCAR-5 ovarian) was over 100 µM and the TGI (OVCAR-8 ovarian) was 49.2 µM. The GI50 (RPMI-8226 leukemia) was 19.1 µM, the TGI (RPMI-8226 leukemia) was 57.6 µM and the GI50 (RXF-631 renal) was 44.9 µM. It also gave a TGI (RXF-631 renal) of over 100 µM, a TGI (SF-268 CNS) of over 100 µM and a GI50 (SF-295 CNS) of 50.2 µM. It also gave a TGI (SF-295 CNS) of over 100 µM, a TGI (SF-539 CNS) of 37.6 µM and a TGI (SK-MEL-2 melanoma) of 91.7 µM. For the same compound, the TGI (SK-MEL-28 melanoma) was 91.8 µM, the TGI (SK-MEL-5 melanoma) was 32.5 µM and the GI50 (SK-OV-3 ovarian) was over 100 µM. The TGI (SK-OV-3 ovarian) was over 100 µM, the TGI (SN12C renal) was over 100 µM and the GI50 (SNB-19 CNS) was 47.5 µM. The TGI (SNB-19 CNS) was over 100 µM, the GI50 (SNB-75 CNS) was 37.1 µM and the TGI (SNB-75 CNS) was over 100 µM. It also gave a TGI (SNB-78 CNS) of over 100 µM, a TGI (SW-620 colon) of 37.6 µM and a GI50 (TK-10 renal) of 31 µM. It also gave a TGI (TK-10 renal) of 77.5 µM, a GI50 (U251 CNS) of 46 µM and a TGI (U251 CNS) of over 100 µM. For the same compound, the TGI (UACC-257 melanoma) was 68.9 µM, the TGI (UACC-62 melanoma) was 64.5 µM and the GI50 (UO-31 renal) was 31.3 µM. For the same compound, the TGI (UO-31 renal) was over 100 µM and the TGI (XF 498 CNS) was 61.6 µM.
For `CCCCCCCCCCCCCP(=O)(O)NCC(N)=O`, the TGI (786-0 renal) was over 100 µM, the TGI (A498 renal) was over 100 µM and the TGI (A549 NSCLC) was over 100 µM. The TGI (ACHN renal) was over 100 µM, the TGI (CCRF-CEM leukemia) was over 100 µM and the TGI (COLO 205 colon) was over 100 µM. It also gave a TGI (DLD-1 colon) of over 100 µM, a TGI (DMS 114 small cell lung) of over 100 µM and a TGI (EKVX NSCLC) of over 100 µM. It also gave a TGI (HCC-2998 colon) of over 100 µM, a TGI (HCT-116 colon) of over 100 µM and a TGI (HCT-15 colon) of over 100 µM. For the same compound, the TGI (HL-60(TB) leukemia) was 67.3 µM, the TGI (HOP-18 NSCLC) was 86.1 µM and the TGI (HOP-62 NSCLC) was over 100 µM. The TGI (HOP-92 NSCLC) was over 100 µM, the TGI (HT29 colon) was over 100 µM and the TGI (IGROV1 ovarian) was over 100 µM. For the same compound, the TGI (KM12 colon) was over 100 µM, the TGI (KM20L2 colon) was over 100 µM and the TGI (LOX IMVI melanoma) was over 100 µM. The TGI (LXFL 529 NSCLC) was over 100 µM, the TGI (M14 melanoma) was over 100 µM and the TGI (M19-MEL melanoma) was over 100 µM. It also gave a TGI (MALME-3M melanoma) of over 100 µM, a TGI (NCI-H226 lung) of over 100 µM and a TGI (NCI-H23 lung) of over 100 µM. The TGI (NCI-H460 lung) was over 100 µM, the TGI (NCI-H522 lung) was 86.2 µM and the TGI (OVCAR-3 ovarian) was over 100 µM. The TGI (OVCAR-4 ovarian) was over 100 µM, the TGI (OVCAR-5 ovarian) was over 100 µM and the TGI (OVCAR-8 ovarian) was over 100 µM. For the same compound, the TGI (RPMI-8226 leukemia) was over 100 µM, the TGI (RXF 393 renal) was over 100 µM and the TGI (RXF-631 renal) was over 100 µM. The TGI (SF-268 CNS) was over 100 µM, the TGI (SF-295 CNS) was over 100 µM and the TGI (SF-539 CNS) was over 100 µM. For the same compound, the TGI (SK-MEL-2 melanoma) was over 100 µM, the TGI (SK-MEL-28 melanoma) was over 100 µM and the TGI (SK-MEL-5 melanoma) was over 100 µM. The TGI (SK-OV-3 ovarian) was over 100 µM, the TGI (SN12C renal) was over 100 µM and the TGI (SNB-19 CNS) was over 100 µM. For the same compound, the TGI (SNB-75 CNS) was over 100 µM, the TGI (SW-620 colon) was over 100 µM and the TGI (TK-10 renal) was over 100 µM. For the same compound, the TGI (U251 CNS) was over 100 µM, the TGI (UACC-257 melanoma) was over 100 µM and the TGI (UACC-62 melanoma) was over 100 µM. It also gave a TGI (UO-31 renal) of 90.4 µM and a TGI (XF 498 CNS) of over 100 µM.
`CC1(C)OCC(C(O)C2OC(C)(C)OC2/C=N\O)O1` (configuration not stated) was tested, and the TGI (786-0 renal) was over 100 µM, the TGI (A498 renal) was over 100 µM and the TGI (A549 NSCLC) was over 100 µM. The TGI (ACHN renal) was over 100 µM, the TGI (CCRF-CEM leukemia) was over 100 µM and the TGI (COLO 205 colon) was over 100 µM. The TGI (DLD-1 colon) was over 100 µM, the TGI (DMS 114 small cell lung) was over 100 µM and the TGI (DMS 273 small cell lung) was over 100 µM. The TGI (EKVX NSCLC) was over 100 µM, the TGI (HCC-2998 colon) was over 100 µM and the TGI (HCT-116 colon) was over 100 µM. The TGI (HL-60(TB) leukemia) was over 100 µM, the TGI (HOP-18 NSCLC) was over 100 µM and the TGI (HOP-62 NSCLC) was over 100 µM. It also gave a TGI (HOP-92 NSCLC) of over 100 µM, a TGI (HT29 colon) of over 100 µM and a TGI (IGROV1 ovarian) of over 100 µM. It also gave a TGI (K-562 leukemia) of over 100 µM, a TGI (KM12 colon) of over 100 µM and a TGI (KM20L2 colon) of over 100 µM. It also gave a TGI (LOX IMVI melanoma) of over 100 µM, a TGI (LXFL 529 NSCLC) of over 100 µM and a TGI (M19-MEL melanoma) of over 100 µM. For the same compound, the TGI (MALME-3M melanoma) was over 100 µM, the TGI (MOLT-4 leukemia) was over 100 µM and the TGI (NCI-H23 lung) was over 100 µM. It also gave a TGI (NCI-H460 lung) of over 100 µM, a TGI (NCI-H522 lung) of over 100 µM and a TGI (OVCAR-3 ovarian) of over 100 µM. For the same compound, the TGI (OVCAR-5 ovarian) was over 100 µM, the TGI (OVCAR-8 ovarian) was over 100 µM and the TGI (RPMI-8226 leukemia) was over 100 µM. For the same compound, the TGI (RXF 393 renal) was over 100 µM, the TGI (SF-268 CNS) was over 100 µM and the TGI (SF-295 CNS) was over 100 µM. The TGI (SF-539 CNS) was over 100 µM, the TGI (SK-MEL-2 melanoma) was over 100 µM and the TGI (SK-MEL-28 melanoma) was over 100 µM. For the same compound, the TGI (SK-MEL-5 melanoma) was over 100 µM, the TGI (SK-OV-3 ovarian) was over 100 µM and the TGI (SNB-19 CNS) was over 100 µM. The TGI (SNB-75 CNS) was over 100 µM, the TGI (SNB-78 CNS) was over 100 µM and the TGI (SW-620 colon) was over 100 µM. It also gave a TGI (TK-10 renal) of over 100 µM, a TGI (U251 CNS) of over 100 µM and a TGI (UACC-257 melanoma) of over 100 µM. For the same compound, the TGI (UO-31 renal) was over 100 µM and the TGI (XF 498 CNS) was over 100 µM.
